Paper PMC11564732, “Synthesis and preliminary cytotoxicity evaluation of water soluble pentacyclic triterpenoid phosphonates” (Scientific Reports, 2024)
≈ marks a conversion by molar mass, not a printed value.

Experiments:
[1] = system: human-derived osteosarcoma cell line MG-63; assay: Cytotoxicity evaluation, relative cell metabolic activity (CellTiter-Blue), MG-63; assay type: cell-based; conditions: 24 h, mean ± SD; for viability at 10 µM / viability at 25 µM / viability at 50 µM: Homo sapiens, read-out: Relative metabolic activity of MG-63 cells; for viability at 10 µM: MG-63, 10 µM; for viability at 25 µM: MG-63, 25 µM; for viability at 50 µM: MG-63, 50 µM
Protocol: (§1) All target compounds were studied to determine their cytotoxic activity at various concentrations of each compound (10–50 µM) against human-derived osteosarcoma cell line MG-63 (ATCC, CRL-1427) and mouse-derived preosteoblast cell line MC3T3-E1 (ATCC, CRL-2593) (Table 4 and Figures S1-S4 in the Supporting Information). For the comparison, naturally occurring betulinic, oleanolic (1b) and ursolic (1c) acids as well as their 3-oxo analogs 2a-c and doxorubicin, were also subjected to the cytotoxicity tests.
(§2) Cytotoxicity of betulinic acid, ursolic acid and oleanolic acid derivatives was evaluated using human-derived osteosarcoma cell line MG63 (ATCC, CRL-1427) and mouse-derived preosteoblast cell line MC3T3-E1 (ATCC CRL-2593). Before conducting the experiments, both cell lines were continuously cultured according to the ATCC product sheet instructions. Briefly, both cell lines were expanded in α-MEM medium supplemented with 10% FBS and 1% pen-strep and maintained at 37 °C in a humidified atmosphere with 5% CO2.
(§3) Each cell line was plated at a concentration of 1 × 10^4 cells/well in 96-well plate. The plates were incubated for 24 h to allow cell attachment and growth. Bioactive substances were solubilized in methanol prior further dilution in cell culture media. Following the cell incubation period, the culture media was removed and the dilutions of active substance (10, 25 and 50 µM) in cell culture media were added. The culture medium only and its dilutions with methanol solution respective to the bioactive substance concentrations were used as the controls. […] Cells were treated with bioactive substance solutions for 24 h. After 24 h incubation, relative cell metabolic activity was assessed using CellTiter-Blue® (CTB) analysis (Promega, JAV). […] was measured at 590 nm using microplate reader (Infinite® 200 PRO, Tecan, USA). The relative cell metabolic activity was calculated for each bioactive substance concentration as well as for the controls. […] Statistically significant differences between sample groups are assessed using a one-way ANOVA test and then corrected using the Šídák multiple comparison test. Statistically significant differences were considered to be those with a P-values less than 0.05 (p < 0.05).
as §2, with “10 %” for “10%”, “1 %” for “1%”, “5 %” for “5%”
(§4) […]

[2] = system: mouse-derived preosteoblast cell line MC3T3-E1; assay: Cytotoxicity evaluation, relative cell metabolic activity (CellTiter-Blue), MC3T3-E1; assay type: cell-based; conditions: 24 h, mean ± SD; for viability at 10 µM / viability at 25 µM / viability at 50 µM: Mus musculus, read-out: Relative metabolic activity of MC3T3-E1 cells; for viability at 10 µM: MC3T3-E1, 10 µM; for viability at 25 µM: MC3T3-E1, 25 µM; for viability at 50 µM: MC3T3-E1, 50 µM
Protocol: as §1, §2, §3
as §2, with “10 %” for “10%”, “1 %” for “1%”, “5 %” for “5%”
as §4

[3] = Water solubility determination by quantitative 1H-NMR in D2O; assay type: physicochemical; conditions: D2O adjusted with NaOD, aqueous buffer, thermodynamic from solid; qNMR in D2O, pH 8.0-8.5 (NaOD), room temperature, potassium hydrogen phthalate external standard
Excerpt: The obtained PCT-derived sodium phosphonates were subjected to water solubility tests (Table 3). For this purpose, we used a quantitative ^1H-NMR approach in D2O, using potassium hydrogen phthalate as an external standard (for experimental details see Supporting Information). The presence of the basic forms of phosphonates[80] was ensured by the careful addition of NaOD, maintaining pH 8.0–8.5 during the quantification, which is 2–3 units higher than the pKa of phosphonic acid disalt. […] This is by at least two to three orders of magnitude higher than the reported solubilities of the parent natural triterpenic acids. […] Indeed, phosphonic acids are more acidic and easier ionizable than carboxylic acids. This ionic character helps to increase the aqueous solubility as exemplified by here described compounds.
Water solubility determination
To suspension of PCT phosphonate sample (10 mg) in D2O (500 µL) 0.8% solution of NaOD in D2O was added dropwise until pH = 8-8.5 (<100 µL). Obtained suspension was sonified in ultrasonic bath for 10 min. Undissolved particles were separated by centrifugation. Clear D2O solution was carefully transferred to NMR tube equipped with external standard vial.
Formula (1) was used to determine the solubility of PCT sample in the D2O.
[…]
SolPCT - solubility of PCT sample in D2O at room temperature (mg/mL)
IPCT - integral value of PCT signal of choice
Ist - integral value of external standard signal of choice
NPCT - number of integrated protons of PCT
Nst - number of integrated protons of external standard
V - volume of used D2O (mL) mst - mass of external standard (mg)
Mbet - molecular weight of PCT (g•mol−1)
Mst - molecular weight of external standard - potassium hydrogen phthalate (204.22 […]
Wst - assay of the external standard (99.5 %)

[4] = cited from earlier work

Compound | viability at 10 µM [1] [%] | viability at 25 µM [1] [%] | viability at 50 µM [1] [%] | viability at 10 µM [2] [%] | viability at 25 µM [2] [%] | viability at 50 µM [2] [%] | solubility at 10 min [3] [µg/mL] | Solubility in distilled water ([4]; distilled water) [µg/mL] | Aqueous solubility at neutral pH [4] [µg/mL] | Solubility in sodium phosphate solution ([4]; pH 11.4, sodium phosphate solution) [µg/mL] | Aqueous solubility at pH 11.8 [4] [µg/mL] | Relative metabolic activity of MG-63 cells ([1]; 10 µM) | Relative metabolic activity of MG-63 cells ([1]; 25 µM) | Relative metabolic activity of MG-63 cells ([1]; 50 µM) | Relative metabolic activity of MC3T3-E1 cells ([2]; 10 µM) | Relative metabolic activity of MC3T3-E1 cells ([2]; 25 µM) | Relative metabolic activity of MC3T3-E1 cells ([2]; 50 µM) | Aqueous solubility (in words) ([4]; compared with oleanolic and betulinic acids)
C=C(C)[C@@H]1CC[C@]2(COCP(=O)([O-])[O-])CC[C@]3(C)[C@H](CC[C@@H]4[C@@]5(C)CC[C@H](OCP(=O)([O-])[O-])C(C)(C)[C@@H]5CC[C@]43C)[C@@H]12.[Na+].[Na+].[Na+].[Na+] [compound 12, Sodium (lup-20(29)-en-(3 S)-3,28-diylbis(oxymethylene))bis(phosphonate)] | 97 ± 8 | 89 ± 5 | 94 ± 4 | 90 ± 7 | 93 ± 6 | 92 ± 4 | 3000 | – | – | – | – | – | – | – | – | – | – | –
CC1(C)CCC2(C(=O)OCP(=O)([O-])[O-])CCC3(C)C(=CCC4C5(C)CCC(=O)C(C)(C)C5CCC43C)C2C1.[Na+].[Na+] (stereo not drawn) [7b] | 113 ± 8 | 132 ± 5 | 119 ± 5 | 131 ± 8 | 150 ± 4 | 104 ± 5 | 8000 | – | – | – | – | – | – | – | – | – | – | –
C[C@H]1[C@H](C)CC[C@]2(C(=O)O)CC[C@]3(C)C(=CC[C@@H]4[C@@]5(C)CCC(=O)C(C)(C)[C@@H]5CC[C@]43C)[C@H]12 [Ursonic acid (2c), Ursonic acid] | 76 ± 8 | 67 ± 4 | 67 ± 4 | 74 ± 2 | 107 ± 7 | 72 ± 9 | – | – | – | – | – | – | – | – | – | – | – | –
C=C(C)[C@@H]1CC[C@]2(C(=O)O)CC[C@]3(C)[C@H](CC[C@@H]4[C@@]5(C)CC[C@H](O)C(C)(C)[C@@H]5CC[C@]43C)[C@@H]12 [Betulinic acid] | 74 ± 16 | 91 ± 14 | 112 ± 8 | 76 ± 7 | 56 ± 4 | 97 ± 7 | – | 0.021 (≈ 0.046 µM) | < 0.1 | 40.1 (≈ 87.8 µM) | 42.1 | – | – | – | – | – | – | –
C=C(C)[C@@H]1CC[C@]2(C(=O)O)CC[C@]3(C)[C@H](CC[C@@H]4[C@@]5(C)CCC(=O)C(C)(C)[C@@H]5CC[C@]43C)[C@@H]12 [Betulonic acid (2a), Betulonic acid] | 114 ± 2 | 96 ± 4 | 88 ± 8 | 139 ± 6 | 170 ± 5 | 122 ± 1 | – | – | – | – | – | – | – | – | – | – | – | –
CC1(C)CC[C@]2(C(=O)O)CC[C@]3(C)C(=CC[C@@H]4[C@@]5(C)CCC(=O)C(C)(C)[C@@H]5CC[C@]43C)[C@@H]2C1 [Oleanonic acid (2b), Oleanonic acid] | 151 ± 8 | 160 ± 3 | 103 ± 18 | 110 ± 1 | 99 ± 5 | 49 ± 12 | – | – | – | – | – | – | – | – | – | – | – | –
Sodium (3-oxo-(17R)-17-28-norlup-20(29)-en)-2-oxoethyl-phosphonate [7a] | – | – | – | – | – | – | – | – | – | – | – | 1.10 ± 0.04 | 1.30 ± 0.06 | 1.09 ± 0.04 | 1.41 ± 0.01 | 1.27 ± 0.05 | 1.13 ± 0.03 | –
C[C@H]1[C@H](C)CC[C@]2(C(=O)O)CC[C@]3(C)C(=CC[C@@H]4[C@@]5(C)CC[C@H](O)C(C)(C)[C@@H]5CC[C@]43C)[C@H]12 [Ursolic acid (1c), Ursolic acid] | 66 ± 3 | 64 ± 3 | 28 ± 4 | 106 ± 5 | 83 ± 5 | 99 ± 8 | – | – | – | – | – | – | – | – | – | – | – | similarly low aqueous solubility
C=C(C)C1CCC2(C(=O)OCP(=O)([O-])[O-])CCC3(C)C(CCC4C5(C)CCC(O)C(C)(C)C5CCC43C)C12.[Na+].[Na+] (stereo not drawn) [8a] | 158 ± 5 | 124 ± 25 | 159 ± 17 | 108 ± 5 | 119 ± 4 | 101 ± 5 | 3000 | – | – | – | – | – | – | – | – | – | – | –
COc1cccc2c1C(=O)c1c(O)c3c(c(O)c1C2=O)C[C@@](O)(C(=O)CO)C[C@@H]3O[C@H]1C[C@H](N)[C@H](O)[C@H](C)O1 [Doxorubicin] | 41 ± 2 | 19 ± 1 | 16 ± 2 | 72 ± 7 | 60 ± 3 | 53 ± 3 | – | – | – | – | – | – | – | – | – | – | – | –
CC1(C)CC[C@]2(C(=O)O)CC[C@]3(C)C(=CC[C@@H]4[C@@]5(C)CC[C@H](O)C(C)(C)[C@@H]5CC[C@]43C)[C@@H]2C1 [Oleanolic acid (1b), Oleanolic acid] | 77 ± 14 | 158 ± 13 | 129 ± 11 | 104 ± 7 | 97 ± 8 | 96 ± 5 | – | – | < 0.1 | – | 99.5 | – | – | – | – | – | – | –
CC1(C)CCC2(C(=O)OCP(=O)([O-])[O-])CCC3(C)C(=CCC4C5(C)CCC(O)C(C)(C)C5CCC43C)C2C1.[Na+].[Na+] (stereo not drawn) [8b] | – | – | – | – | – | – | 7000 | – | – | – | – | – | – | – | – | – | – | –
CC1CCC2(C(=O)OCP(=O)([O-])[O-])CCC3(C)C(=CCC4C5(C)CCC(=O)C(C)(C)C5CCC43C)C2C1C.[Na+].[Na+] (stereo not drawn) [7c] | 96 ± 4 | 98 ± 4 | 112 ± 3 | 91 ± 6 | 90 ± 3 | 94 ± 5 | 26000 | – | – | – | – | – | – | – | – | – | – | –
